In patent US4927958A, “Styryl ketones” (Hoffmann-La Roche Inc., priority 1987, dated 1990):

How the values were obtained:
[1] = tested on: ethanol-induced lesions of the mucous membrane of the stomach; test: Ethanol test (mucosa-protective activity); type: in vivo, male rats; details: rats; oral, 30 minutes prior to absolute ethanol (1 ml per rat); dosage reducing by 50% the number of lesions vs control; read-out: Ethanol Test ID 50
Experimental: The experimental procedure described hereinafter has been used to determine the mucosa-protective property:
The oral administration of absolute ethanol to male rats in a dosage of 1 ml per rat leads within 1 hour to bloody lesions of the mucous membrane of the stomach. Various dosages of the substances to be tested (suspended in 0.125% carboxymethylcellulose) or of the vehicle alone (control) are administered to the rats orally (1 ml per rat) 30 minutes prior to the treatment with ethanol. One hour after the administration of the ethanol the animals are sacrificed, their stomachs are examined for the presence of lesions, and the number and size of such lesions are mentioned. The ID50 is that dosage of a test substance which reduces by 50% the number of lesions in comparison to the control group.
(§1) In the following Table there are given for a series of representative compounds of formula I and for two compounds of formula II the results of the testing with respect to their mucosa-protective activity ("ethanol test") and to their gastric acid secretion-inhibiting activity. Moreover, this Table contains data concerning the acute toxicity (LD50 in the case of single oral administration to mice).

gastric acid secretion = test: Gastric acid secretion-inhibiting activity (pylorus ligation, Shay et al.); type: in vivo, male rats; details: Rattus norvegicus, 5 h; pylorus-ligated rats; intraduodenal; five hours after ligation; dosage giving 50% decrease of the secretion vs control; read-out: Gastric acid secretion-inhibition ID 50
Experimental: The test procedure described hereinafter was used to determine the gastric acid secretion-inhibiting activity:
The pylorus of male rats is ligated under slight ether narcosis in accordance with the procedure described by Shay et al. in Gastroenterology 5, 43 (1945). The substances to be tested, suspended in 0.5% carboxymethylcellulose, are administered intraduodenally. Control animals are treated only with the vehicle. Five hours after the ligation the animals are sacrificed, the volume and acidity of their gastric fluid are determined, and the values obtained are compared with those of control animals. The ID50 is that dosage of a test substance which brings about a 50% decrease of the secretion in comparison to the control animals.
as §1

[2] = Acute toxicity (single oral administration to mice); details: mouse, in vivo, read-out: Toxicity LD 50
Text: Representative compounds of formulae I and II have been investigated with respect to their mucosa-protective and gastric acid secretion-inhibiting properties as well as to their toxicity.
as §1

Row | SMILES | ED50 [1] [mg/kg] | ED50 (gastric acid secretion) [mg/kg] | LD50 [2] [mg/kg]
1 | COc1cccc(/C=C/C(=O)/C=C/C(=O)O)c1 [A, (E,E)6-(3-Methoxyphenyl)-4-oxo-2,5-hexadienoic acid] | 0.8 | 9 | 312 to 625
2 | COc1ccc(/C=C/C(=O)/C=C/C(=O)O)cc1 [B, (E,E)6-(4-Methoxyphenyl)-4-oxo-2,5-hexadienoic acid] | 0.7 |  | 312 to 625
3 | COC(=O)/C=C\C(=O)/C=C/c1ccc(OC)cc1 [C, Methyl (2Z,5E)6-(4-methoxyphenyl)-4-oxo-2,5-hexadienoate] | 1 |  | 625 to 1250
4 | COc1ccc(/C=C/C(=O)C#CC(=O)O)cc1 [D, (E)6-(4-Methoxyphenyl)-4-oxo-5-hexen-2-ynoic acid] | 0.5 |  | 500 to 1000
5 | O=C(O)/C=C/C(=O)/C=C/c1ccc(F)cc1 [E, (E,E)6-(4-Fluorophenyl)-4-oxo-2,5-hexadienoic acid] | 1.9 |  | 312 to 625
6 | COc1ccc(/C=C/C(=O)/C=C\C(=O)O)cc1 [F, (2Z,5E)6-(4-Methoxyphenyl)-4-oxo-2,5-hexadienoic acid] | 0.7 |  | 156 to 312
7 | COCCOCCOC(=O)/C=C/C(=O)/C=C/c1cccc(OC)c1 [G, 2(2-Methoxyethoxy)ethyl (E,E)6-(3-methoxyphenyl)-4-oxo-2,5-hexadienoate] | 2.7 |  | 500 to 1000
8 | COCCOCCOC(=O)C#CC(=O)/C=C/c1ccc(OC)cc1 [H, 2(2-Methoxyethoxy)ethyl (E)6-(4-methoxyphenyl)-4-oxo-5-hexen-2-ynoate] | 2.7 |  | 2500 to 5000
9 | COC(=O)C#CC(O)/C=C/c1ccc(OC)cc1 (stereo not drawn) [I, Methyl (E)4-hydroxy-6-(4-methoxyphenyl)-5-hexen-2-ynoate] | 2.1 |  | 1000 to 2000
10 | COCCOCCOC(=O)C#CC(O)/C=C/c1ccc(OC)cc1 (stereo not drawn) [J, 2(2-Methoxyethoxy)ethyl (E)4-hydroxy-6-(4-methoxy-phenyl)-5-hexen-2-ynoate] | 3.4 |  | > 4000
